According to patent publication US20090281322A1, “THERAPEUTICALLY USEFUL SUBSTITUTED 1,7-DIPHENYL-1,2,3,5,6,7-HEXAHYDROPYRIDO[3,2,1-Ij]QUINOLINE COMPOUNDS” (ALLERGAN, INC., priority 2008, published 2009):

Target: S1P3 receptor (Homo sapiens, UniProt Q99500)
Assay: in vitro activity in the S1P3 receptor
Format: cell-based
Details: for IC50: Activity potency nM
Description: The in vitro activity of these compounds in the S1P3 receptor was determined using the assay described in paragraph [0067] of United States Patent Application Publication No. 20070232682, which published on Oct. 4, 2007.

Chain of S1P3 receptor (Q99500 whole entry): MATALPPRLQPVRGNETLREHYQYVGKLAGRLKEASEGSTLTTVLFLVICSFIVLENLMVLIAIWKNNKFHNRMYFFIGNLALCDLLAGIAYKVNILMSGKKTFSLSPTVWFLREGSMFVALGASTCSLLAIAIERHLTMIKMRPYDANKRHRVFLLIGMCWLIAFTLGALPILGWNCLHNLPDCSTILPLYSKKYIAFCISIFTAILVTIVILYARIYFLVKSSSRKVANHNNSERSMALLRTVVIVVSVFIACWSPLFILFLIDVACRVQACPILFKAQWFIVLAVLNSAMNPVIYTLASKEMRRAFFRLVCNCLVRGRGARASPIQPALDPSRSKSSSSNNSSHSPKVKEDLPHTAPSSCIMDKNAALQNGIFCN

Structure (SMILES)	IC50 [nM]	S1P3 % Inhibition [%]
CCOC(=O)Nc1cc2c3c(c1)C(c1cccc(F)c1)CCN3CCC2c1cccc(F)c1 (stereo not drawn) [compound 093, Ethyl 1,7-bis(3-fluorophenyl)-1,2,3,5,6,7-hexahydropyrido[3,2,1-ij]quinolin-9-ylcarbamate]	48	–
CCCOC(=O)Nc1cc2c3c(c1)C(c1cccc(F)c1)CCN3CCC2c1cccc(F)c1 (stereo not drawn) [compound 094, Propyl 1,7-bis(3-fluorophenyl)-1,2,3,5,6,7-hexahydropyrido[3,2,1-ij]quinolin-9-ylcarbamate]	234	–
O=C(Nc1cc2c3c(c1)C(c1ccccc1)CCN3CCC2c1ccccc1)OCCF (stereo not drawn) [compound 095, 2-fluoroethyl 1,7-diphenyl-1,2,3,5,6,7-hexahydropyrido[3,2,1-ij]quinolin-9-ylcarbamate]	56	–
CC(C)(C)NC(=O)Nc1cc2c3c(c1)C(c1ccccc1)CCN3CCC2c1ccccc1 (stereo not drawn) [compound 148, 1-tert-butyl-3-(1,7-diphenyl-1,2,3,5,6,7-hexahydropyrido[3,2,1-ij]quinolin-9-yl)urea]	38	–
CCCCOC(=O)Nc1cc2c3c(c1)C(c1cccc(F)c1)CCN3CCC2c1cccc(F)c1 (stereo not drawn) [compound 202, Butyl 1,7-bis(3-fluorophenyl)-1,2,3,5,6,7-hexahydropyrido[3,2,1-ij]quinolin-9-ylcarbamate]	272	–
O=C(Nc1cc2c3c(c1)C(c1ccccc1)CCN3CCC2c1ccccc1)OCCCCl (stereo not drawn) [compound 205, 3-chloropropyl 1,7-diphenyl-1,2,3,5,6,7-hexahydropyrido[3,2,1-ij]quinolin-9-ylcarbamate]	8	–
O=C(Nc1cc2c3c(c1)C(c1ccccc1)CCN3CCC2c1ccccc1)OCCCCCl (stereo not drawn) [compound 206, 4-chlorobutyl 1,7-diphenyl-1,2,3,5,6,7-hexahydropyrido[3,2,1-ij]quinolin-9-ylcarbamate]	62	–
CCCNC(=S)Nc1cc2c3c(c1)C(c1ccccc1)CCN3CCC2c1ccccc1 (stereo not drawn) [compound 255, 1-(1,7-diphenyl-1,2,3,5,6,7-hexahydropyrido[3,2,1-ij]quinolin-9-yl)-3-propylthiourea]	153	–
CCCCCCNC(=S)Nc1cc2c3c(c1)C(c1ccccc1)CCN3CCC2c1ccccc1 (stereo not drawn) [compound 256, 1-(1,7-diphenyl-1,2,3,5,6,7-hexahydropyrido[3,2,1-ij]quinolin-9-yl)-3-hexylthiourea]	78	–
O=C(NCc1ccoc1)Nc1cc2c3c(c1)C(c1ccccc1)CCN3CCC2c1ccccc1 (stereo not drawn) [compound 258, 1-(1,7-diphenyl-1,2,3,5,6,7-hexahydropyrido[3,2,1-ij]quinolin-9-yl)-3-(furan-3-ylmethyl)urea]	59	–
COC(=O)Nc1cc2c3c(c1)C(c1ccccc1)CCN3CCC2c1ccccc1 (stereo not drawn) [compound 272, methyl 1,7-diphenyl-1,2,3,5,6,7-hexahydropyrido[3,2,1-ij]quinolin-9-ylcarbamate]	8.3	–
CCOC(=O)Nc1cc2c3c(c1)C(c1ccccc1)CCN3CCC2c1ccccc1 (stereo not drawn) [compound 273, Ethyl 1,7-diphenyl-1,2,3,5,6,7-hexahydropyrido[3,2,1-ij]quinolin-9-ylcarbamate]	63	–
CC(C)COC(=O)Nc1cc2c3c(c1)C(c1ccccc1)CCN3CCC2c1ccccc1 (stereo not drawn) [compound 274, Isobutyl 1,7-diphenyl-1,2,3,5,6,7-hexahydropyrido[3,2,1-ij]quinolin-9-ylcarbamate]	64	–
CCCOC(=O)Nc1cc2c3c(c1)C(c1ccccc1)CCN3CCC2c1ccccc1 (stereo not drawn) [compound 275, Propyl 1,7-diphenyl-1,2,3,5,6,7-hexahydropyrido[3,2,1-ij]quinolin-9-ylcarbamate]	12.2	–
CCCCOC(=O)Nc1cc2c3c(c1)C(c1ccccc1)CCN3CCC2c1ccccc1 (stereo not drawn) [compound 276, Butyl 1,7-diphenyl-1,2,3,5,6,7-hexahydropyrido[3,2,1-ij]quinolin-9-ylcarbamate]	8.7	–
O=C(Nc1cc2c3c(c1)C(c1ccccc1)CCN3CCC2c1ccccc1)Oc1ccccc1 (stereo not drawn) [compound 277, Phenyl 1,7-diphenyl-1,2,3,5,6,7-hexahydropyrido[3,2,1-ij]quinolin-9-ylcarbamate]	901	–
O=C(Nc1cc2c3c(c1)C(c1ccccc1)CCN3CCC2c1ccccc1)OCc1ccccc1 (stereo not drawn) [compound 278, Benzyl 1,7-diphenyl-1,2,3,5,6,7-hexahydropyrido[3,2,1-ij]quinolin-9-ylcarbamate]	66	–
C#CCOC(=O)Nc1cc2c3c(c1)C(c1ccccc1)CCN3CCC2c1ccccc1 (stereo not drawn) [compound 352, Prop-2-ynyl 1,7-diphenyl-1,2,3,5,6,7-hexahydropyrido[3,2,1-ij]quinolin-9-ylcarbamate]	40	–
CC#CCOC(=O)Nc1cc2c3c(c1)C(c1ccccc1)CCN3CCC2c1ccccc1 (stereo not drawn) [compound 353, But-2-ynyl 1,7-diphenyl-1,2,3,5,6,7-hexahydropyrido[3,2,1-ij]quinolin-9-ylcarbamate]	13	98
C=CCCOC(=O)Nc1cc2c3c(c1)C(c1ccccc1)CCN3CCC2c1ccccc1 (stereo not drawn) [compound 354, But-3-enyl 1,7-diphenyl-1,2,3,5,6,7-hexahydropyrido[3,2,1-ij]quinolin-9-ylcarbamate]	16	97
CN(C)C(=O)Nc1cc2c3c(c1)C(c1ccccc1)CCN3CCC2c1ccccc1 (stereo not drawn) [compound 405, 3-(1,7-diphenyl-1,2,3,5,6,7-hexahydropyrido[3,2,1-ij]quinolin-9-yl)-1,1-dimethylurea]	131	–
CCNC(=O)Nc1cc2c3c(c1)C(c1ccccc1)CCN3CCC2c1ccccc1 (stereo not drawn) [compound 484, 1-(1,7-diphenyl-1,2,3,5,6,7-hexahydropyrido[3,2,1-ij]quinolin-9-yl)-3-ethylurea]	77	–
CCCCNC(=O)Nc1cc2c3c(c1)C(c1ccccc1)CCN3CCC2c1ccccc1 (stereo not drawn) [compound 485, 1-Butyl-3-(1,7-diphenyl-1,2,3,5,6,7-hexahydropyrido[3,2,1-ij]quinolin-9-yl)urea]	52	–
CCCCCCNC(=O)Nc1cc2c3c(c1)C(c1ccccc1)CCN3CCC2c1ccccc1 (stereo not drawn) [compound 487, 1-(1,7-diphenyl-1,2,3,5,6,7-hexahydropyrido[3,2,1-ij]quinolin-9-yl)-3-hexylurea]	301	–
O=C(NCCCl)Nc1cc2c3c(c1)C(c1ccccc1)CCN3CCC2c1ccccc1 (stereo not drawn) [compound 769, 1-(2-chloroethyl)-3-(1,7-diphenyl-1,2,3,5,6,7-hexahydropyrido[3,2,1-ij]quinolin-9-yl)urea]	374	–
C=CCNC(=O)Nc1cc2c3c(c1)C(c1ccccc1)CCN3CCC2c1ccccc1 (stereo not drawn) [compound 773, 1-allyl-3-(1,7-diphenyl-1,2,3,5,6,7-hexahydropyrido[3,2,1-ij]quinolin-9-yl)urea]	160	–
COC(=O)Nc1cc2c3c(c1)C(c1cccc(F)c1)CCN3CCC2c1cccc(F)c1 (stereo not drawn) [compound 779, Methyl 1,7-bis(3-fluorophenyl)-1,2,3,5,6,7-hexahydropyrido[3,2,1-ij]quinolin-9-ylcarbamate]	23	–
O=C(Nc1cc2c3c(c1)C(c1ccccc1)CCN3CCC2c1ccccc1)N1CCOCC1 (stereo not drawn) [compound 983, N-(1,7-diphenyl-1,2,3,5,6,7-hexahydropyrido[3,2,1-ij]quinolin-9-yl)morpholine-4-carboxamide]	130	–
